Where two headings read alike, the source gives them in different places.
Assays:
Format in all cases: cell-based, human
[1] = tested on: myeloid leukemia KG1 cell line; assay: Cell proliferation of KG1, flow cytometric cell count; conditions: for Recovery of cell number after wash-out: washed free after 6 hours of exposure, 7 days drug-free medium
Method: Cell lines: Human leukemic cell lines were obtained from the American Type Culture Collection (ATCC, Rockville, Md., USA). They were cultured in Iscove's Modified Dulbecco's Medium (IMDM) supplemented with 10% heat inactivated fetal calf serum (FCS), 200 U/ml penicillin, 200 μg/ml streptomycin and 1 μg/ml amphotericin B. Cells were cultured in a 5% CO2-95% air fully humidified incubator. For effects on clonogenic output, 1000 cells/well were plated in duplicate in methylcellulose (0.9%), supplemented with 20% FCS for 14 days.
Cells were plated at 10000 per well in 200 μl IMDM medium and incubated with 0-50 μM of the novel compounds (Tab 8), by addition of drug directly to the culture medium and incubated at 37° C. for 96 hours (Tab 8). Absolute cell number was determined by addition of a known concentration Fluoresbrite microspheres (FITC) (Polysciences, Inc.). The absolute number of cells/well was calculated as: {(total number of beads added/well)/(number of beads measured)×(number of measured cells in the gate of interest)}. All analyses were performed with a FACScan (BD), using CELLQuest software (Becton Dickinson).
Response of the myeloid leukemia KG1 and T-lymphocyte leukemia Molt3 cell lines to the cytostatic effect of the novel compounds was determined using the above-mentioned standardized bead suspension that was used to determine the absolute cell number by flow cytometric (FCM) measurement. Cells were grown in the presence of increasing concentration of the novel compounds.
To determine reversibility of the effects of the novel compounds, cells were plated at 10000 per well and exposed to 0-50 μM of the compounds for the time indicated, followed by washing in phosphate-buffered saline (PBS) (Life Technologies) and reseeded into drug-free medium for 7 additional days. An identical set of cells was plated and exposed to the drugs for 7 additional days. After 7 days (168 hours), the relative cell number was assayed by flow cytometry.

KG1 cells = assay: Induction of apoptosis in tumor cells (microscopy, flow cytometry); conditions: for Speed of apoptosis induction: scored after 6, 12, 24, 48 and 72 hours
Method: Microscopy: Nuclear morphology of the cells was analyzed with the fluorochromes Hoechst 33342 (λEx max 346 nm; λEm max 460 nm) (Sigma) prepared in phosphate-buffered saline (PBS at 0.1 mg/ml, added to the culture medium at a final concentration of 2 μg/ml and ethidium homodimer (EB) (λEx max 540 nm; λEm max 625 nm) (Sigma) prepared in PBS at 100 μg/ml and added to the culture medium at a final concentration of 2 μg/ml (Lizard, 1995). Hundred cells were counted for each sample and percentage of apoptosis was determined.
TdT-mediated dUTP nick end labeling (TUNEL): Control and novel compound-treated cell cultures were washed with PBS and fixed in 1% buffered formaldehyde (pH 7.4) for 15 minutes on ice. After washing in PBS, cells were permeabilized in 70% cold (−20° C.) ethanol and transferred to 4° C. for at least 1 hour. After rehydratation in PBS, cells were labeled with 50 μl/well TUNEL reaction mixture (Boehringer Mannheim). Cells were incubated in this solution at 37° C. for 40 minutes, washed in PBS and resuspended in 500 μl PBS containing 5 μg/ml EB and 0.1% RNAse. After 30 minutes of incubation at 4° C., green (FITC-dUTP) and red (EB-DNA) fluorescence of individual cells was measured on a FACscan flow cytometer (Gorczyca, 1993). Negative control (fixed and permeabilized cells incubated with 50 μl label solution per well without terminal transferase, instead of TUNEL reaction mixture) and positive control (fixed and permeabilized cells incubated with DNase I (100 μg/ml) that induces DNA strand breaks) were included in each experimental set-up.
Viable, apoptotic, necrotic (=primary necrosis, not following apoptosis) and secondarily necrotic cells (=late apoptosis, evolving to necrosis) were scored differentially after 6, 12, 24, 48 and 72 hours of exposure to novel compounds. For the three products a different apoptosis-inducing pattern could be observed. Apoptosis induction occurs fast after incubation with 172 and 201 but slower after incubation with 98.
After 6 and 12 hours of incubation the apoptotic population seems mainly to evolve from S phase. […]

[2] = tested on: adult bone marrow CD34+CD38− cells; assay: Pre-CFU assay; conditions: for IC50: 14-day liquid culture, secondary methylcellulose culture
From the text: Adult Bone Marrow Cells (ABM): Bone marrow samples were obtained by sternal puncture from hematologically normal donors undergoing cardiac surgery, after obtaining informed consent according to the ethical regulations of the University of Antwerp. Cells were collected in IMDM supplemented with 10% FCS and 100 U/ml heparin and separated by density gradient as mentioned for PBMC. After washing, cells were resuspended in IMDM 10% FCS and were sorted on a FACStar (Becton Dickinson, Erembodegem, Belgium).
Cell sorting: ABM cells (10^7 cells/ml) were incubated with 43A1 hybridoma supernatant at a 1/10 dilution for 20 minutes at 4° C. The supernatant of the 43A1 hybridoma (immunoglobulin IgG3) was kindly donated by Dr. H. J. Bühring (University of Tübingen, Germany) and was used as a source of anti-CD34 antibodies. After washing twice in IMDM, the cells were incubated with FITC-conjugated rabbit anti-mouse IgG (1/40 dilution) for 20 min at 4° C. After washing twice cells were incubated for 10 minutes with 5 μg mouse Ig and for 15 minutes with anti-CD38-PE (20 μl/10^6 cells). After washing twice in IMDM, the cells were sorted on a FACStarPlus cell sorter equipped with an water-cooled argon ion laser (INNOVA Enterprise Ion Laser) with multiple wave length outputs including UV (488 nm). Cells with low-to-medium forward and low side scatter, highly positive green (CD34) fluorescence, and an orange (CD38) fluorescence signal lower than the mean fluorescence of cells labeled with an irrelevant isotype-matched control antibody were retained as CD34^+CD38^− cells; cells with an orange fluorescence above this threshold were retained as CD34^+CD38^+ cells.
Pre-CFU: Pre-CFU assays were initiated by performing liquid cultures of CD34^+CD38^− in duplicate in 96-well flat-bottomed plates in IMDM/10% FCS, 1% bovine serum albumin (BSA), and different combinations of the following cytokines: 100 U/ml IL-1, 200 U/ml IL-6, 30 U/ml IL-3 and 100 ng/ml stel cell factor (SCF). Pre-CFU cultures were initiated with 500 CD34^+CD38^− cells/well (200 μl). After 14 days of culture at 37° C. in 7.5% O2 and 5% CO2 in a fully humidified incubator, the number of cells in each well was counted. Following this the cells were harvested, washed three times in IMDM/10% FCS, and plated in duplicate at 500 cells/well (1000 μl) in secondary methylcellulose CFU cultures as described for CFU assays.
Pre-CFU were cultured starting from adult bone marrow CD34^+CD38^− cells, that had been isolated using the FCM cell sorter. Novel compounds were added at different concentrations to the primary 14-day liquid culture. IC50 was calculated from dose-response curves from total clonogenic output after secondary methylcellulose culture (Tab. 8).

[3] = continuous exposure, 7 days (168 hours), read-out: IC50, KG1 cells exposed continuously

| Compound | IC50 ([1]; 96 hours, read-out: KG1 IC50) [µM] | IC50 [1, 3] [µM] | Recovery of cell number after wash-out [1] | Speed of apoptosis induction (KG1 cells) | IC50 [2] [µM] | IC50 ([1]; Homo sapiens, KG-1, 96 hours, read-out: KG1 IC50) [µM] | IC50 ([2]; Homo sapiens, 336 h) [µM] | Activity on pre-CFU compared with CFU [2] | Incubation time after which apoptosis is detected (KG1 cells; flow cytometry, cell line not given) [h] |
| --- | --- | --- | --- | --- | --- | --- | --- | --- | --- |
| 5-(3-hydroxypropylamino)-7-[(R,S)-(1-phenyl-2-hydroxyethyl)amino-3-isopropylpyrazolo[4,3-d]pyrimidine [Compound 172] | 3 ± 1 | 7 ± 2 | substantial recovery of cell number | fast | > 25 | – | – | – | – |
| CCCCCCNc1nc(NC(CO)c2ccccc2)c2[nH]nc(C(C)C)c2n1 (centres unmarked) [Compound 98, 5-(hexylamino)-7-(1-phenyl-2-hydroxyethylamino)-3-isopropylpyrazolo[4,3-d]pyrimidine] | – | – | – | – | – | 5 ± 0.3 | > 25 | – | – |
| 5-(methylthio)-7-[N-(3,4-dihydroxybenzyl-N-methyl]amino-3 isopropylpyrazolo[4,3-d]pyrimidine [Compound 26] | 13 ± 0.2 | – | – | – | 86 | – | – | more active on pre-CFU than on CFU | – |
| 5-(3-aminopropylamino)-7-benzylamino-3-isopropylpyrazolo[4,3-d]pyrimidine [Compound 17] | 6 ± 1 | 16 ± 1.7 | substantial recovery of cell number | – | 10 | – | – | – | – |
| 5-(3-aminoethylamino)-7-(3,4-dihydroxybenzyl)amino-3-isopropylpyrazolo[4,3-d]pyrimidine [Compound 201] | 12 ± 1.3 | 16 ± 1.3 | substantial recovery of cell number | fast | 1.5 | – | – | – | 6 |

— patent US7745450B2, “Pyrazolo[4,3-d]pyrimidines, processes for their preparation and methods for therapy” (Institute of Experimental Botany, priority 2002, dated 2010)
